# In ChEMBL document CHEMBL5244281, “Tackling multidrug-resistant Staphylococcus aureus by natural products and their analogues acting as NorA efflux pump inhibitors” (Bioorg Med Chem, 2023):
# Assays:
# Staphylococcus aureus [1] = experiment: Synergistic antibacterial activity against methicillin resistant Staphylococcus aureus clinical isolates assessed as fractional inhibitory concentration index in presence of norfloxacin; type: functional
# Staphylococcus aureus [2] = experiment: Antibacterial activity against methicillin resistant Staphylococcus aureus clinical isolates assessed as bacterial growth inhibition; type: functional
# Staphylococcus aureus [3] = experiment: Synergistic antibacterial activity against methicillin resistant Staphylococcus aureus clinical isolates assessed as fractional inhibitory concentration index in presence of ciprofloxacin; type: functional
# Staphylococcus aureus [4] = experiment: Synergistic antibacterial activity against methicillin resistant Staphylococcus aureus clinical isolates assessed as fractional inhibitory concentration index in presence of ofloxacin; type: functional
# Staphylococcus aureus [5] = experiment: Antibacterial activity against norfloxacin resistant Staphylococcus aureus RN4220 overexpressing MsrA efflux pump gene assessed as bacterial growth inhibition incubated for 18 to 24 hrs by NCCLS protocol based microdilution method; type: functional; details: time 18-24 hrs
# Staphylococcus aureus [6] = experiment: Antibacterial activity against norfloxacin resistant Staphylococcus aureus 1199B overexpressing NorA efflux pump gene assessed as bacterial growth inhibition incubated for 18 to 24 hrs by NCCLS protocol based microdilution method; type: functional; details: time 18-24 hrs
# Staphylococcus aureus [7] = experiment: Antibacterial activity against norfloxacin resistant Staphylococcus aureus IS-58 overexpressing TetK efflux pump gene assessed as bacterial growth inhibition incubated for 18 to 24 hrs by NCCLS protocol based microdilution method; type: functional; details: time 18-24 hrs
# [8] = target: T1, Quinolone resistance protein NorA (Staphylococcus aureus) (UniProt P0A0J7); experiment: Inhibition of NorA efflux pump in Staphylococcus aureus 1199B overexpressing NorA efflux pump assessed as reduction in EtBr MIC at 128 ug/ml using EtBr as substrate by resazurin based assay (Rvb= 32 ug/ml); details: dose 128.0 µg/ml
# T1 sequence (whole entry): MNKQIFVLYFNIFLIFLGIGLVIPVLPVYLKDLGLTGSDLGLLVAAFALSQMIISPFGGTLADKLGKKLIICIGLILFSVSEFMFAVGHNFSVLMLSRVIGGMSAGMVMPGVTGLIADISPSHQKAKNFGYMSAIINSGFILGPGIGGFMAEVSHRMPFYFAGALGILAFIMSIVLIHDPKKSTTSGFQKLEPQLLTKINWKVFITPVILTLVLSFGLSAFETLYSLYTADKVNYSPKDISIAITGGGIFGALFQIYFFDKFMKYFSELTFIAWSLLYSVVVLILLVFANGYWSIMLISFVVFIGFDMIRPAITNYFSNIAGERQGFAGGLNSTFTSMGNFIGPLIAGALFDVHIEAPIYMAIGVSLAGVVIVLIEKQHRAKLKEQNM
# Staphylococcus aureus [9] = experiment: Synergistic antibacterial activity against Staphylococcus aureus 1199B overexpressing NorA gene assessed as fractional inhibitory concentration index at 128 ug/ml in presence of norfloxacin; type: functional; details: dose 128 µg/ml
# Staphylococcus aureus [10] = experiment: Antibacterial activity against methicillin-resistant Staphylococcus aureus clinical isolate assessed as bacterial growth inhibition by broth dilution method; type: functional
# [11] = target: T1, Quinolone resistance protein NorA (Staphylococcus aureus); experiment: Inhibition of NorA efflux pump in methicillin-resistant Staphylococcus aureus clinical isolate assessed as decrease in ciprofloxacin MIC and measured for 20 mins in presence of ciprofloxacin by spectrofluorimetric analysis (Rvb=128 ug/ml)
# [12] = target: T1, Quinolone resistance protein NorA (Staphylococcus aureus); experiment: Inhibition of NorA efflux pump in methicillin-resistant Staphylococcus aureus clinical isolate assessed as EtBr MIC using EtBr as substrate at 64 ug/ml and measured for 20 mins by spectrofluorimetric analysis (Rvb=[…] ug/ml); details: dose 64.0 µg/ml
# Staphylococcus aureus [13] = experiment: Synergistic antibacterial activity against methicillin-resistant Staphylococcus aureus clinical isolate assessed as fractional inhibitory concentration index in presence of ciprofloxacin by checkerboard assay; type: functional
# [14] = target: T1, Quinolone resistance protein NorA (Staphylococcus aureus); experiment: Inhibition of NorA efflux pump in Staphylococcus aureus 1199B overexpressing NorA efflux pump assessed as decrease in ciprofloxacin MIC and […] (Rvb=8 ug/ml)
# Staphylococcus aureus [15] = experiment: Antibacterial activity against Staphylococcus aureus ATCC 25923 assessed as bacterial growth inhibition incubated for 24 hrs by resazurin based microdilution test; type: functional
# Staphylococcus aureus [16] = experiment: Antibacterial activity against norfloxacin resistant Staphylococcus aureus 1199B harboring NorA efflux pump gene assessed as bacterial growth inhibition incubated for 24 hrs by resazurin based microdilution test; type: functional
# Escherichia coli [17] = experiment: Antibacterial activity against Escherichia coli ATCC 25922 assessed as bacterial growth inhibition incubated for 24 hrs by resazurin based microdilution test; type: functional
# [18] = target: T1, Quinolone resistance protein NorA (Staphylococcus aureus); experiment: Potentiation of ciprofloxacin-induced inhibition of NorA efflux pump in Staphylococcus aureus 1199 assessed as ciprofloxacin MIC at 100 ug/ml for 18 to 20 hrs by checkerboard method (Rvb=0.25 ug/ml); details: dose 100.0 µg/ml, time 18-20 hrs
# [19] = target: T1, Quinolone resistance protein NorA (Staphylococcus aureus); experiment: Inhibition of NorA efflux pump in Staphylococcus aureus 1199B overexpressing NorA efflux pump assessed as minimum effective concentration for 18 to 20 hrs; details: time 18-20 hrs
# [20] = target: T1, Quinolone resistance protein NorA (Staphylococcus aureus); experiment: Potentiation of ciprofloxacin-induced inhibition of NorA efflux pump in Staphylococcus aureus 1199B overexpressing NorA efflux pump assessed as ciprofloxacin MIC at 100 ug/ml for 18 to 20 hrs by checkerboard method (Rvb=4 ug/ml); details: dose 100.0 µg/ml, time 18-20 hrs
# Pseudomonas aeruginosa = experiment: Antibacterial activity against Pseudomonas aeruginosa 24 assessed as bacterial growth inhibition incubated for 24 hrs by broth microdilution method; type: functional
# Staphylococcus aureus [21] = experiment: Antibacterial activity against Staphylococcus aureus 10 assessed as bacterial growth inhibition incubated for 24 hrs by broth microdilution method; type: functional
# Escherichia coli [22] = experiment: Antibacterial activity against Escherichia coli 06 assessed as bacterial growth inhibition incubated for 24 hrs by broth microdilution method; type: functional
# Staphylococcus aureus [23] = experiment: Antibacterial activity against Staphylococcus aureus EMRSA-16 assessed as bacterial growth inhibition incubated for 18 hrs by MTT assay; type: functional
# [24] = target: T1, Quinolone resistance protein NorA (Staphylococcus aureus); details: 1199B, dose 64.0 µg/ml
# Staphylococcus aureus [25] = experiment: Synergistic antibacterial activity against Staphylococcus aureus RN4220 assessed as fractional Inhibitory concentration index at 64 ug/ml in presence of norfloxacin by broth dilution method; type: functional; details: dose 64 µg/ml
# Staphylococcus aureus [26] = experiment: Antibacterial activity against Staphylococcus aureus 1199B overexpressing NorA assessed as bacterial growth inhibition incubated for 18 hrs by MTT assay; type: functional
# Staphylococcus aureus [27] = experiment: Antibacterial activity against tetracycline-resistant Staphylococcus aureus XU212 assessed as bacterial growth inhibition incubated for 18 hrs by MTT assay; type: functional
# Staphylococcus aureus [28] = experiment: Antibacterial activity against Staphylococcus aureus EMRSA-15 assessed as bacterial growth inhibition incubated for 18 hrs by MTT assay; type: functional
# Staphylococcus aureus [29] = experiment: Synergistic antibacterial activity against Staphylococcus aureus 1199B overexpressing NorA assessed as fractional Inhibitory concentration index at 64 ug/ml in presence of norfloxacin by broth dilution method; type: functional; details: dose 64 µg/ml
# Staphylococcus aureus [30] = experiment: Synergistic antibacterial activity against Staphylococcus aureus EMRSA-15 assessed as fractional Inhibitory concentration index at 64 ug/ml in presence of norfloxacin by broth dilution method; type: functional; details: dose 64 µg/ml
# Staphylococcus aureus [31] = experiment: Antibacterial activity against Staphylococcus aureus ATCC25923 assessed as bacterial growth inhibition incubated for 18 hrs by MTT assay; type: functional
# Staphylococcus aureus [32] = experiment: Antibacterial activity against Staphylococcus aureus RN4220 assessed as bacterial growth inhibition incubated for 18 hrs by MTT assay; type: functional
smiles,measurement,setting,value
CC1=CCC[C@@]2(C)[C@@]1(C)CC[C@@H](C)[C@]2(C)CCC1=CC(=O)O[C@@H]1O,fractional inhibitory concentration index (FICI),Staphylococcus aureus [1],0.315
same,MIC,Staphylococcus aureus [2],15.6 µg/mL
same,fractional inhibitory concentration index (FICI),Staphylococcus aureus [3],0.324
same,fractional inhibitory concentration index (FICI),Staphylococcus aureus [4],0.324
COc1c2ccoc2c(OC)c2oc(=O)ccc12 [ISOPIMPINELLIN],MIC,Staphylococcus aureus [5],> 256 µg/mL
same,MIC,Staphylococcus aureus [6],> 256 µg/mL
same,MIC,Staphylococcus aureus [7],> 256 µg/mL
same,MIC,[8],4 µg/mL
COc1cc(-c2oc3cc(OC)c(OC)c(O)c3c(=O)c2OC)ccc1O [CHRYSOSPLENOL B],fractional inhibitory concentration index (FICI),Staphylococcus aureus [9],0.375
COC(=O)/C=C/c1ccc(OCC(=O)Nc2ccc(C)cc2)c(OC)c1,MIC,Staphylococcus aureus [10],> 125 µg/mL
same,MIC,[11],64 µg/mL
same,MIC,[12],4 µg/mL
same,fractional inhibitory concentration index (FICI),Staphylococcus aureus [13],0.75
same,MIC,[14],2 µg/mL
Oc1ccc2c(c1)O[C@H](c1ccc(O)c(O)c1)[C@@H](O)C2 [FISETINIDOL],MIC,Staphylococcus aureus [15],≥ 1020 µg/mL
same,MIC,Staphylococcus aureus [16],≥ 1020 µg/mL
same,MIC,Escherichia coli [17],≥ 1020 µg/mL
CC(C)/C=C/CCCCC(=O)NCc1ccc(O)c(OCc2nnc(Nc3cccc(Br)c3)o2)c1,MIC,[18],0.12 µg/mL
same,MEC,[19],12.5 µg/mL
same,MIC,[20],0.5 µg/mL
C=C1CC/C=C(\C)CC[C@@H]2[C@@H]1CC2(C)C [BETA-CARYOPHYLLENE],MIC,Pseudomonas aeruginosa,≥ 1020 µg/mL
same,MIC,Staphylococcus aureus [21],32 µg/mL
same,MIC,Escherichia coli [22],≥ 1020 µg/mL
COc1ccc(-c2cc(=O)c3c(O)cc(O)cc3o2)cc1O [DIOSMETIN],MIC,Staphylococcus aureus [23],8 µg/mL
same,MIC,[24],16 µg/mL
same,fractional inhibitory concentration index (FICI),Staphylococcus aureus [25],0.38
same,MIC,Staphylococcus aureus [26],32 µg/mL
same,MIC,Staphylococcus aureus [27],32 µg/mL
same,MIC,Staphylococcus aureus [28],32 µg/mL
same,fractional inhibitory concentration index (FICI),Staphylococcus aureus [29],0.38
same,fractional inhibitory concentration index (FICI),Staphylococcus aureus [30],0.09
same,MIC,Staphylococcus aureus [31],32 µg/mL
same,MIC,Staphylococcus aureus [32],32 µg/mL
